# Laboratory results: patent publication US8569302B2, “Inhibitors of flaviviridae viruses” (Gilead Sciences, Inc., priority 2009, dated 2013)
# System: human hepatoma Huh-7 cell line harboring a HCV replicon
# Assay: HCV replicon assay (inhibition of viral replication, luciferase readout)
# Format: cell-based
# Conditions: Huh-7 HCV replicon cells, 3 days incubation; for inhibition at 2 µM: Hepatitis C virus, 72 h
# How it was run: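 Read-outs: luciferase luminescence for replication inhibition, corrected by ITMN-191 (100% inhibition) wells, and calcein AM fluorescence for cytotoxicity. Cells were treated for 3 days at 37 °C with ten 3-fold compound dilutions in 0.44% final DMSO. Percent inhibition relative to DMSO was fitted with a Hill equation to give EC50 and CC50.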
Compound,inhibition at 2 µM [%],% inhibition at 2μM [%]
"CC(C)(C)C#Cc1cc(N(C(=O)[C@H]2CC[C@H](C)CC2)[C@H]2CC[C@@H](O[C@H]3CCOC3)CC2)c(C(=O)O)s1 [Compound 332, 5-(3,3-Dimethyl-but-1-ynyl)-3-{(trans-4-methyl-cyclohexanecarbonyl)-[4-(tetrahydro-furan-3(S)-yloxy)-cis-cyclohexyl]-amino}-thiophene-2-carboxylic acid]",99.9,–
"CC(C)(C)C#Cc1cc(N(C(=O)[C@H]2CC[C@H](C)CC2)[C@H]2CC[C@H](Oc3ccncn3)CC2)c(C(=O)O)s1 [Compound 163, 5-(3,3-Dimethylbut-1-ynyl)-3-(4-methyl-N-(4-(pyrimidin-4-yloxy)cyclohexyl)cyclohexanecarboxamido)thiophene-2-carboxylic acid]",100,–
"CC(C)(C)C#Cc1cc(N(C(=O)[C@H]2CC[C@H](C)CC2)[C@H]2CC[C@H](S(=O)(=O)C3CCOCC3)CC2)c(C(=O)O)s1 [Compound 109, 5-(3,3-Dimethylbut-1-ynyl)-3-(4-methyl-N-(4-(tetrahydro-2H-pyran-4-ylsulfonyl)cyclohexyl)cyclohexanecarboxamido)thiophene-2-carboxylic acid]",99.9,–
"CC(C)(C)C#Cc1cc(N(C(=O)[C@H]2CC[C@H](C)CC2)[C@H]2C[C@H](Oc3cccnc3)C2)c(C(=O)O)s1 [Compound 21, 5-(3,3-Dimethyl-but-1-ynyl)-3-[(trans-4-methyl-cyclohexanecarbonyl)-{trans-3-(pyridin-3-yloxy)-cyclobutyl]-amino}-thiophene-2-carboxylic acid]",98.8,–
"C[C@@H]1CC[C@@H](C(=O)N(c2cc(C#CC(C)(C)C)sc2C(=O)O)[C@H]2CC[C@H](O[C@@H]3CCOC3)CC2)[C@@H](O)C1 [Compound 310, 5-(3,3-dimethylbut-1-ynyl)-3-((1R,2S,4R)-2-hydroxy-4-methyl-N-(4-(tetrahydrofuran-3R-yloxy)cyclohexyl)cyclohexanecarboxamido)thiophene-2-carboxylic acid]",100,–
"C[C@@H](CCOc1cc(CN2CCCC2)ccn1)N(c1cc(C#CC(C)(C)C)sc1C(=O)O)C(=O)[C@H]1CC[C@H](C)CC1 [Compound 62, 5-(3,3-dimethyl-but-1-ynyl)-3-[(trans-4-methyl-cyclohexanecarbonyl)-[1-(S)-methyl-3-(4-pyrrolidin-1-yl-methyl-pyridin-2-yloxy)-propyl]-amino]-thiophene-2-carboxylic acid]",100,–
"Cn1cnc(S(=O)(=O)N2CCC(N(c3cc(C#CC(C)(C)C)sc3C(=O)O)C(=O)[C@H]3CC[C@H](C)CC3)CC2)c1 [Compound 201, 5-(3,3-Dimethyl-but-1-ynyl)-3-{(4-methyl-cyclohexanecarbonyl)-[1-(1-methyl-1′-1-imidazole-4-sulfonyl)-piperidin-4-yl]-amino}-thiophene-2-carboxylic acid]",100,–
"CCn1ccnc1S[C@H]1CC[C@H](N(c2cc(C#CC(C)(C)C)sc2C(=O)O)C(=O)[C@H]2CC[C@H](C)CC2)CC1 [Compound 89, 5-(3,3-Dimethylbut-1-ynyl)-3-(N-(4-(1-ethyl-1H-imidazol-2-ylthio)cyclohexyl)-4-methylcyclohexanecarboxamido)thiophene-2-carboxylic acid]",99.4,–
"CC(C)(C)C#Cc1cc(N(C(=O)[C@H]2CC[C@H](C)CC2)[C@H]2CC[C@H](Sc3nncn3C3CC3)CC2)c(C(=O)O)s1 [Compound 90, 3-(N-(4-(4-Cyclopropyl-4H-1,2,4-triazol-3-ylthio)cyclohexyl)-4-methylcyclohexanecarboxamido)-5-(3,3-dimethylbut-1-ynyl)thiophene-2-carboxylic acid]",100,–
"Cc1nc(S(=O)(=O)N2CCC(N(c3cc(C#CC(C)(C)C)sc3C(=O)O)C(=O)[C@H]3CC[C@H](C)CC3)CC2)cn1C [Compound 206, 5-(3,3-Dimethyl-but-1-ynyl)-3-[[1-(1,2-dimethyl-1H-imidazole-4-sulfonyl)-piperidin-4-yl]-(4-methyl-cyclohexanecarbonyl)-amino]-thiophene-2-carboxylic acid]",100,–
"CC1CCC(C(=O)N(c2cc(C#CC(C)(C)C)sc2C(=O)O)[C@H]2CC[C@H](Oc3cnccc3CN3CCC(N(C)C)C3)CC2)CC1 (some centres unmarked) [Compound 195, 3-[[-4-(3-dimethylamino-pyrrolidin-1-ylmethyl-pyridin-3-yloxy)-cyclohexyl]-(4-methyl-cyclohexanecarbonyl)-amino]-5-(3,3-dimethyl-but-1-ynyl)-thiophene-2-carboxylic acid]",99.7,–
"CC1CCC(C(=O)N(CCOc2ccccn2)c2cc(C#CC(C)(C)C)sc2C(=O)O)CC1 (centres unmarked) [Compound 139, 5-(3,3-dimethyl-but-1-ynyl)-3-{(4-methyl-cyclohexanecarbonyl)-[3-(pyridin-2-yloxy)-ethyl]-amino}-thiophene-2-carboxylic acid]",96.4,–
"CN(C)Cc1ccnc(O[C@H]2CC[C@H](N(c3cc(C#CC4(C(F)(F)F)CCC4)sc3C(=O)O)C(=O)[C@H]3CC[C@H](C)CC3)CC2)c1 [Compound 338, 3-((1r,4R)—N-((1r,4R)-4-(4-((dimethylamino)methyl)pyridin-2-yloxy)cyclohexyl)-4-methylcyclohexanecarboxamido)-5-((1-(trifluoromethyl)cyclobutyl)ethynyl)thiophene-2-carboxylic acid]",99.9,–
CC(C)(C)C#Cc1cc(N(C(=O)[C@H]2CC[C@H](C)CC2)[C@H]2CC[C@H](O[C@H]3CCN(C(=O)OC(C)(C)C)C3)CC2)c(C(=O)O)s1 [Compound 225],98.4,–
"CC(C)(C)C#Cc1cc(N(C(=O)[C@H]2CC[C@H](C)CC2)[C@H]2CC[C@@H](Oc3cnc(Cl)cn3)CC2)c(C(=O)O)s1 [Compound 182, 3-(N-(4-(5-Chloropyrazin-2-yloxy)cyclohexyl)-4-methylcyclohexanecarboxamido)-5-(3,3-dimethylbut-1-ynyl)thiophene-2-carboxylic acid]",99,–
"CC(C)(C)C#Cc1cc(N(C(=O)[C@H]2CC[C@H](C)CC2)[C@H]2CC[C@H](Oc3cnccn3)CC2)c(C(=O)O)s1 [Compound 2, 5-(3,3-Dimethyl-but-1-ynyl)-3-{(trans-4-methyl-cyclohexanecarbonyl)-[trans-4-(pyrazin-2-yloxy)-cyclohexyl]-amino}-thiophene-2-carboxylic acid]",99.6,–
"C[C@@H]1CC[C@@H](C(=O)N(c2cc(C#CC(C)(C)C)sc2C(=O)O)[C@H]2CC[C@H](O[C@H]3CCOC3)CC2)[C@@H](O)C1 [Compound 309, 5-(3,3-dimethylbut-1-ynyl)-3-((1R,2S,4R)-2-hydroxy-4-methyl-N-(4-(tetrahydrofuran-3S-yloxy)cyclohexyl)cyclohexanecarboxamido)thiophene-2-carboxylic acid]",100,–
"CC(C)(C)C#Cc1cc(N(C(=O)[C@H]2CC[C@H](C)CC2)C2CCN(S(=O)(=O)c3ccccn3)CC2)c(C(=O)O)s1 [Compound 209, 5-(3,3-Dimethyl-but-1-ynyl)-3-{(4-methyl-cyclohexanecarbonyl)-[1-(pyridine-2-sulfonyl)-piperidin-4-yl]-amino}-thiophene-2-carboxylic acid]",100,–
"CC1=CCC(C(=O)N(c2cc(C#CC(C)(C)C)sc2C(=O)O)[C@H]2CC[C@H](O[C@@H]3CCOC3)CC2)[C@H](C)C1 (single isomer, unassigned) [Compound 306, 5-(3,3-Dimethyl-but-1-ynyl)-3-{(4,6R-dimethyl-cyclohex-3-enecarbonyl)-[4-(tetrahydro-furan-3R-yloxy)-trans-cyclohexyl]-amino}-thiophene-2-carboxylic acid]",–,99.99
"Cn1nnnc1S(=O)(=O)[C@H]1CC[C@H](N(c2cc(C#CC(C)(C)C)sc2C(=O)O)C(=O)[C@H]2CC[C@H](C)CC2)CC1 [Compound 110, 5-(3,3-Dimethylbut-1-ynyl)-3-(4-methyl-N-(4-(1-methyl-1H-tetrazol-5-ylsulfonyl)cyclohexyl)cyclohexanecarboxamido)thiophene-2-carboxylic acid]",100,–
"CC(C)(C)C#Cc1cc(N(C(=O)[C@H]2CC[C@H](C)CC2)[C@H]2CC[C@H](Oc3cncnc3)CC2)c(C(=O)O)s1 [Compound 162, 5-(3,3-Dimethylbut-1-ynyl)-3-(4-methyl-N-(4-(pyrimidin-5-yloxy)cyclohexyl)cyclohexanecarboxamido)thiophene-2-carboxylic acid]",99.9,–
C[C@@H]1CC[C@@H](C(=O)N(c2cc(C#CC(C)(C)C)sc2C(=O)O)[C@H]2CC[C@H](OC3CCOC3)CC2)[C@@H](O)C1 (some centres unmarked) [Compound 227],100,–
"Cc1ccc(O[C@H]2CC[C@H](N(c3cc(C#CC(C)(C)C)sc3C(=O)O)C(=O)[C@H]3CC[C@H](C)CC3)CC2)nc1 [Compound 11, 5-(3,3-Dimethyl-but-1-ynyl)-3-{(trans-4-methyl-cyclohexanecarbonyl)-[trans-4-(5-methyl-pyridin-2-yloxy)-cyclohexyl]-amino}-thiophene-2-carboxylic acid]",99.9,–
"CC(C)(C)C#Cc1cc(N(C(=O)[C@H]2CC[C@H](C)CC2)[C@H]2CC[C@H](Sc3ccncc3)CC2)c(C(=O)O)s1 [Compound 87, 5-(3,3-Dimethylbut-1-ynyl)-3-(4-methyl-N-(4-(pyridin-4-ylthio)cyclohexyl)cyclohexanecarboxamido)thiophene-2-carboxylic acid]",99.5,–
"CC(C)(C)C#Cc1cc(N(C(=O)[C@H]2CC[C@H](C)CC2)[C@H]2CCN(S(=O)(=O)c3ccccn3)C2)c(C(=O)O)s1 [Compound 215, 5-(3,3-Dimethyl-but-1-ynyl)-3-{(4-methyl-cyclohexanecarbonyl)-[1-(pyridine-2-sulfonyl)-pyrrolidin-3-yl]-amino}-thiophene-2-carboxylic acid]",100,–
"CC(C)(C)C#Cc1cc(N(C(=O)[C@H]2CC[C@H](C)CC2)[C@H]2CC[C@@H](Sc3ncccn3)CC2)c(C(=O)O)s1 [Compound 108, 5-(3,3-Dimethylbut-1-ynyl)-3-(4-methyl-N-(4-(pyrimidin-2-ylthio)cyclohexyl)cyclohexanecarboxamido)thiophene-2-carboxylic acid]",99.3,–
